The source of these data is US20230414775A1, “TUBULYSINS AND PROTEIN-TUBULYSIN CONJUGATES” (priority 2021, published 2023).

Structures are written as SMILES. Read-outs that look alike come from different tables or passages of the source.

Data set [1] concerns HCT15 cells. The data set can be described thus: HCT15 anti-proliferation / cell killing assay (CellTiter-Glo), with or without verapamil. Format: cell-based, human. The note with it: for IC50: Homo sapiens. The procedure:
The cell line used in the anti-proliferation assays was HCT15, a human colon, colorectal carcinoma cell line. The HCT15 cells were grown in RPMI medium 1640+10% FBS. To run the assay, the cells (40 μL, 400 cells) were added to each well in a 384-well plate and incubated for twenty-four hours at 37° C. with 5% CO2. One hour before adding compounds, freshly dilute Verapamil to 0.2 mg/ml in ddH2O. Add 1 μL/well diluted Verapamil to Verapamil treatment wells and 1 μL/well ddH2O to the non-Verapamil treatment wells. Return plates to the incubator at 37° C. with 5% CO2. Then the cells were treated with test compounds at various concentrations using HPD300, and then normalize the DMSO to 0.5%. The control wells contained cells and the medium but lack the test compounds. The plates were incubated for 120 hours at 37° C. with 5% CO2. CTG reagent was then added to the wells (25 μL). After the plates were shaken for 10 min and then incubated for 10 min at room temperature, paste the clear bottom with white back seal and record luminescence with Envision. The inhibition % was calculated according to the following equation: inhibition %=[1−(assay-blank)/(control-blank)]×100.
Background: Cellular ATP, detected with luciferase, serves as a proxy for viable cell number.

Data set [2] concerns SK-BR-3 cells. The data set can be described thus: SK-BR-3 anti-proliferation assay for payloads (CellTiter-Glo). Format: cell-based. The note with it: Homo sapiens, free payload, 120-144 h, read-out: SKBR3. The procedure: The cell line used in the anti-proliferation assays was SK-BR-3, a human breast, adenocarcinoma (pleural effusion) cell line. The cells were grown in McCoy's 5a Medium+10% FBS. To run the assay for payloads, the cells (40 μL, 700 cells) were added to each well in a 384-well plate and incubated for 24 hours at 37° C. with 5% CO2. Then the cells were treated with test compounds at various concentrations using HPD300, and then normalize the DMSO to 0.5%. The control wells contain cells and the medium but lack the test compounds. The plates were incubated for 120 h at 37° C. with 5% CO2. To run the assay for ADCs and some key payloads, the cells (80 μL, 1000 cells) were added to each well in a 96-well plate and incubated for twenty-four hours at 37° C. with 5% CO2. Next, the ADCs or payloads were diluted with Opti-Mem with 0.1% BSA. The cells were treated with test compounds or ADCs (20 μL) at various concentrations in appropriate cell culture medium (total volume, 0.1 mL). The final concentration of DMSO was adjusted to 0.2% and the Opti-Mem with 0.1% BSA was adjusted to 5%. The control wells contained cells and the medium but lacked the test compounds. The plates were incubated for 144 h at 37° C. with 5% CO2. CTG reagent was then added to the wells (25 μL/384-well or 100 μL/96-well). After the plates were shaken for 10 min and then incubated for 10 min at room temperature, paste the clear bottom with white back seal and record luminescence with Envision. The inhibition % was calculated according to the following equation: inhibition %=[1-(assay-blank)/(control-blank)]×100.

A short description of data set [3]: Plasma stability test of payloads (LC-MS/MS, half-life). Format: in vitro ADME. The settings on record: human plasma, 37° C., time points 0-24 h, read-out: Human plasma stability T1/2 (converted). As to the method:
Stock solutions were prepared at 10 mM in DMSO for the test compound. Aliquots of the stock solutions were diluted to 0.02 mM in 0.05 M sodium phosphate buffer containing 0.5% BSA as the dosing solution. Then 10 μL of the dosing solutions were dosed into 90 μL of pre-warmed plasma (37° C.) in singlet (n=1) in 96-well assay plates to reach a final test concentration of 2 μM. The plates were kept in a 37° C. water bath for the duration of the experiment. At each time point (0, 0.25, 1, 8, 24 h), 400 μL of acetonitrile (containing internal standard) was added into corresponding wells of the assay plates. After the final time point was quenched, the assay plates were shaken on a vibrator (IKA, MTS 2/4) for 10 min (600 rpm/min) and then centrifuged at 5594 g for 15 min (Thermo Multifuge×3R). Aliquots of the supernatant were taken and analyzed by LC-MS/MS. The peak area response ratio to internal standard (PARR) of the compounds at 0.25, 1, 8, and 24 h was compared to the PARR at time zero to determine the percent of test compound remaining at each time point. Half-lives (ti/2) were calculated using Excel software, fitting to a single-phase exponential decay equation.

The mark [4] stands for this setting: HCT15 cells, no verapamil, 120 h (5 days), read-out: HCT-15.
Setting [5] is: HCT-15, HCT15 cells pre-treated with verapamil, 120 h, read-out: HCT-15 with verapamil.

As for `CCCCCCN(C(=O)[C@@H](NC(=O)[C@H]1CCCCN1C)[C@@H](C)CC)[C@H](C[C@@H](OC(C)=O)c1nc(C(=O)N[C@@H](Cc2ccc(NCCO)cc2)CC(C)(C)C(=O)O)cs1)C(C)C` (racemic) [PA14, Rac-(R)-4-(2-((1S,3S)-1-acetoxy-3-((2R,3R)—N-hexyl-3-methyl-2-((S)-1-methylpiperidine-2-carboxamido)pentanamido)-4-methylpentyl)thiazole-4-carboxamido)-acid], the figures for the IC50 in data set [1] (setting [4]), in data set [1] (setting [5]) and in data set [2] were 0.618 nM, 0.147 nM and 0.158 nM, respectively. For the same molecule, in data set [3], the half-life at 2 μM is 71 h.

Regarding `CCCCCCN(C(=O)[C@@H](NC(=O)[C@H]1CCCCN1C)[C@@H](C)CC)[C@H](C[C@@H](OCC)c1nc(C(=O)N[C@@H](Cc2ccc(NCCO)cc2)CC(C)(C)C(=O)O)cs1)C(C)C` (racemic) [PA15, Rac-(R)-4-(2-((1S,3S)-1-ethoxy-3-((2R,3R)—N-hexyl-3-methyl-2-((S)-1-methylpiperidine-2-carboxamido)pentanamido)-4-methylpentyl)thiazole-4-carboxamido)-acid], the figures for the IC50 in data set [1] (setting [4]), in data set [1] (setting [5]) and in data set [2] were 1.7 nM, 0.393 nM and 0.314 nM, respectively. Also, in data set [3], the half-life at 2 μM was 103 h.

Regarding `CCCCCCN(C(=O)[C@@H](NC(=O)[C@H]1CCCCN1C)[C@@H](C)CC)[C@H](C[C@@H](OCCCO)c1nc(C(=O)N[C@@H](Cc2ccc(N)c(F)c2)CC(C)(C)C(=O)O)cs1)C(C)C` (mixture of isomers) [PA22, Rac-(R)-5-(4-amino-3-fluorophenyl)-4-(2-((1S,3S)-3-((2R,3R)—N-hexyl-3-methyl-2-((S)-1-methylpiperidine-2-carboxamido)pentanamido)-1-(3-hydroxypropoxy)-4-methylpentyl)thiazole-4-carboxamido)-2,2-dimethylpentanoic acid], the “HCT-15 with verapamil (nM)” value in data set [1] (HCT15 cells pre-treated with verapamil, 120 h) is “Not reach”. For the same molecule, the IC50 in data set [1] (setting [4]) stood at 0.532 nM; in data set [2], 0.044 nM. Also, the half-life at 2 μM in data set [3] is 63.5 h.

As to `CCCCCCN(C(=O)[C@@H](NC(=O)[C@H]1CCCCN1CCO)[C@@H](C)CC)[C@H](C[C@@H](OCC)c1nc(C(=O)N[C@@H](Cc2ccc(N)cc2)CC(C)(C)C(=O)O)cs1)C(C)C` [PA13, (S)-5-(4-aminophenyl)-4-(2-((1R,3R)-1-ethoxy-3-((2S,3S)—N-hexyl-2-((R)-1-(2-hydroxyethyl)piperidine-2-carboxamido)-3-methylpentanamido)-4-methylpentyl)thiazole-4-carboxamido)-2,2-dimethylpentanoic acid], the IC50 in data set [1] (setting [4]) worked out at 1.31 nM; in data set [1] (setting [5]), 0.284 nM; in data set [2] it was 0.288 nM. In addition, the half-life at 2 μM in data set [3] was 313 h.

Turning to `CCCCCCN(C(=O)[C@@H](NC(=O)[C@H]1CCCCN1C)[C@@H](C)CC)[C@H](C[C@@H](OC(C)=O)c1nc(C(=O)N[C@@H](Cc2ccc(NCC(=O)O)cc2)CC(C)(C)C(=O)O)cs1)C(C)C` (racemic) [PA16, Rac-(R)-4-(2-((1S,3S)-1-acetoxy-3-((2R,3R)—N-hexyl-3-methyl-2-((S)-1-methylpiperidine-2-carboxamido)pentanamido)-4-methylpentyl)thiazole-4-carboxamido)-acid], the IC50 stood at 0.062 nM in data set [1] (setting [4]), 0.033 nM in data set [1] (setting [5]) and 0.019 nM in data set [2]. Also, in data set [3], the half-life at 2 μM was 327 h.

In the case of `CCCCCCN(C(=O)[C@@H](NC(=O)[C@H]1CCCCN1CCO)[C@@H](C)CC)[C@H](C[C@@H](OC(C)=O)c1nc(C(=O)N[C@@H](Cc2ccc(N)cc2)CC(C)(C)C(=O)O)cs1)C(C)C` [PA7, (4S)-4-({2-[(1R,3R)-1-(acetyloxy)-3-[(2S,3S)—N-hexyl-2-{[(2R)-1-(2-hydroxyethyl)piperidin-2-yl]formamido}-3-methylpentanamido]-4-methylpentyl]-1,3-thiazol-4-yl}formamido)-5-(4-aminophenyl)-2,2-dimethylpentanoic acid], the IC50 was found to be 0.122 nM in data set [1] (setting [4]), 0.037 nM in data set [1] (setting [5]) and 0.038 nM in data set [2]. Also, in data set [3], the half-life at 2 μM was 65.9 h.

Take `CCCCCCN(C(=O)[C@@H](NC(=O)[C@@]1(C)CCCN1)[C@@H](C)CC)[C@H](C[C@@H](OC(C)=O)c1nc(C(=O)N[C@@H](Cc2ccc(N)c(F)c2)CC(C)(C)C(=O)O)cs1)C(C)C` [Compound P15, reference compound]: the IC50 in data set [1] (setting [4]) worked out at 1.66 nM; in data set [1] (setting [5]) it was 0.19 nM; in data set [2], 0.068 nM. In data set [3], the half-life at 2 μM was 15.1 h.

As for `CCCCCCN(C(=O)[C@@H](NC(=O)[C@H]1CCCCN1C)[C@@H](C)CC)[C@H](C[C@@H](OC(=O)NCCO)c1nc(C(=O)N[C@@H](Cc2ccc(N)c(F)c2)CC(C)(C)C(=O)O)cs1)C(C)C` (mixture of isomers) [PA24, (S)-5-(4-amino-3-fluorophenyl)-4-(2-((3RS,6SR,8SR)-3-((RS)-sec-butyl)-5-hexyl-13-hydroxy-6-isopropyl-1-((R)-1-methylpiperidin-2-yl)-1,4,10-trioxo-9-oxa-2,5,11-triazatridecan-8-yl)thiazole-4-carboxamido)-2,2-dimethylpentanoic acid], the IC50 in data set [1] (setting [4]) amounted to 0.944 nM; in data set [1] (setting [5]), 0.255 nM; in data set [2] it was 0.135 nM. For the same molecule, the half-life at 2 μM in data set [3] was 43.4 h.

Consider `CCCCCCN(C(=O)[C@@H](NC(=O)[C@H]1CCCCN1CC(=O)O)[C@@H](C)CC)[C@H](C[C@@H](OC(C)=O)c1nc(C(=O)N[C@@H](Cc2ccc(N)cc2)CC(C)(C)C(=O)O)cs1)C(C)C` [PA10, (S)-4-(2-((1R,3R)-1-acetoxy-3-((2S,3S)-2-((R)-1-(carboxymethyl)piperidine-2-carboxamido)-N-hexyl-3-methylpentanamido)-4-methylpentyl)thiazole-4-carboxamido)-5-(4-aminophenyl)-2,2-dimethylpentanoic acid], for which the IC50 in data set [1] (setting [4]) amounted to 31.7 nM; in data set [1] (setting [5]), 2.95 nM; in data set [2], 5.33 nM.

For `CCCCCCN(C(=O)[C@@H](NC(=O)[C@H]1CCCCN1CCOCCOCCN)[C@@H](C)CC)[C@H](C[C@@H](OC(C)=O)c1nc(C(=O)N[C@@H](Cc2ccc(N)cc2)CC(C)(C)C(=O)O)cs1)C(C)C` [PA12, (4S)-4-({2-[(1R,3R)-1-(acetyloxy)-3-[(2S,3S)-2-{[(2R)-1-{2-[2-(2-aminoethoxy)ethoxy]ethyl}piperidin-2-yl]formamido}-N-hexyl-3-methylpentanamido]-4-methylpentyl]-1,3-thiazol-4-yl}formamido)-5-(4-aminophenyl)-2,2-dimethylpentanoic acid], the IC50 in data set [1] (setting [4]) is 72.1 nM; in data set [1] (setting [5]), 4.73 nM; in data set [2] it was more than 100 nM.

In the case of `CCCCCCN(C(=O)[C@@H](NC(=O)[C@H]1CCCCN1C)[C@@H](C)CC)[C@H](C[C@@H](OC(=O)NCC(O)CO)c1nc(C(=O)N[C@@H](Cc2ccc(N)cc2)CC(C)(C)C(=O)O)cs1)C(C)C` (stereo partly drawn) [PA26, (4S)-5-(4-aminophenyl)-4-(2-((3S,6R,8R)-3-((S)-sec-butyl)-5-hexyl-13,14-dihydroxy-6-isopropyl-1-((R)-1-methylpiperidin-2-yl)-1,4,10-trioxo-9-oxa-2,5,11-triazatetradecan-8-yl)thiazole-4-carboxamido)-2,2-dimethylpentanoic acid], the results for the IC50 in data set [1] (setting [4]), in data set [1] (setting [5]) and in data set [2] were 14.6 nM, 2.23 nM and 2.82 nM, respectively.
